In PubChem BioAssay (NCI):
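48-hour exposure; five concentrations; linearly interpolated endpoints. The concentration for 50% growth inhibition is given as GI50. At the TGI there is no net growth.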

Key:
Test in all cases: NCI-60 cell line screen, 48 h
[1] = tested on: 786-0 renal
[2] = tested on: A498 renal
[3] = tested on: A549 NSCLC
[4] = tested on: ACHN renal
[5] = tested on: BT-549 breast
[6] = tested on: CAKI-1 renal
[7] = tested on: CCRF-CEM leukemia
[8] = tested on: COLO 205 colon
[9] = tested on: DU-145 prostate
[10] = tested on: EKVX NSCLC
[11] = tested on: HCC-2998 colon
[12] = tested on: HCT-116 colon
[13] = tested on: HCT-15 colon
[14] = tested on: HL-60(TB) leukemia
[15] = tested on: HOP-62 NSCLC
[16] = tested on: HOP-92 NSCLC
[17] = tested on: HS 578T breast
[18] = tested on: HT29 colon
[19] = tested on: IGROV1 ovarian
[20] = tested on: K-562 leukemia
[21] = tested on: KM12 colon
[22] = tested on: LOX IMVI melanoma
[23] = tested on: M14 melanoma
[24] = tested on: MCF7 breast
[25] = tested on: MDA-MB-231 breast
[26] = tested on: MDA-MB-435
[27] = tested on: MOLT-4 leukemia
[28] = tested on: NCI-H226 lung
[29] = tested on: NCI-H23 lung
[30] = tested on: NCI-H460 lung
[31] = tested on: NCI-H522 lung
[32] = tested on: NCI/ADR-RES ovarian
[33] = tested on: OVCAR-3 ovarian
[34] = tested on: OVCAR-4 ovarian
[35] = tested on: OVCAR-5 ovarian
[36] = tested on: OVCAR-8 ovarian
[37] = tested on: PC-3 prostate
[38] = tested on: RXF 393 renal
[39] = tested on: SF-268 CNS
[40] = tested on: SF-295 CNS
[41] = tested on: SF-539 CNS
[42] = tested on: SK-MEL-2 melanoma
[43] = tested on: SK-MEL-28 melanoma
[44] = tested on: SK-MEL-5 melanoma
[45] = tested on: SK-OV-3 ovarian
[46] = tested on: SN12C renal
[47] = tested on: SNB-19 CNS
[48] = tested on: SR leukemia
[49] = tested on: SW-620 colon
[50] = tested on: T-47D breast
[51] = tested on: TK-10 renal
[52] = tested on: U251 CNS
[53] = tested on: UACC-257 melanoma
[54] = tested on: UACC-62 melanoma
[55] = tested on: UO-31 renal
[56] = tested on: MALME-3M melanoma
[57] = tested on: RPMI-8226 leukemia
[58] = tested on: SNB-75 CNS

With `CN1C(=NCCO)NS(=O)(=O)c2ccccc21` the TGI [1] was greater than 100 µM, the TGI [2] was greater than 100 µM and the TGI [3] was greater than 100 µM. The TGI [4] was greater than 100 µM, the TGI [5] was greater than 100 µM and the TGI [6] was greater than 100 µM. It also gave a TGI [7] greater than 100 µM, a TGI [8] greater than 100 µM and a TGI [9] greater than 100 µM. It also gave a TGI [10] greater than 100 µM, a TGI [11] greater than 100 µM and a TGI [12] greater than 100 µM. For the same molecule, the TGI [13] was greater than 100 µM, the TGI [14] was greater than 100 µM and the TGI [15] was greater than 100 µM. It also gave a TGI [16] greater than 100 µM, a TGI [17] greater than 100 µM and a TGI [18] greater than 100 µM. It also gave a TGI [19] greater than 100 µM, a TGI [20] greater than 100 µM and a TGI [21] greater than 100 µM. For the same molecule, the TGI [22] was greater than 100 µM, the TGI [23] was greater than 100 µM and the TGI [24] was greater than 100 µM. The TGI [25] was greater than 100 µM, the TGI [26] was greater than 100 µM and the TGI [27] was greater than 100 µM. It also gave a TGI [28] greater than 100 µM, a TGI [29] greater than 100 µM and a TGI [30] greater than 100 µM. For the same molecule, the TGI [31] was greater than 100 µM, the TGI [32] was greater than 100 µM and the TGI [33] was greater than 100 µM. The TGI [34] was greater than 100 µM, the TGI [35] was greater than 100 µM and the TGI [36] was greater than 100 µM. For the same molecule, the TGI [37] was greater than 100 µM, the TGI [38] was greater than 100 µM and the TGI [39] was greater than 100 µM. For the same molecule, the TGI [40] was greater than 100 µM, the TGI [41] was greater than 100 µM and the TGI [42] was greater than 100 µM. For the same molecule, the TGI [43] was greater than 100 µM, the TGI [44] was greater than 100 µM and the TGI [45] was greater than 100 µM. For the same molecule, the TGI [46] was greater than 100 µM, the TGI [47] was greater than 100 µM and the TGI [48] was greater than 100 µM. The TGI [49] was greater than 100 µM, the TGI [50] was greater than 100 µM and the TGI [51] was greater than 100 µM. It also gave a TGI [52] greater than 100 µM, a TGI [53] greater than 100 µM and a TGI [54] greater than 100 µM. For the same molecule, the TGI [55] was greater than 100 µM.

In the case of `C=CCN(CC=C)C(=O)[C@H](CC)[C@@H]1CC[C@@H](C)[C@@H]([C@H](C)[C@@H](O)[C@@H](C)C(=O)[C@H](CC)C2O[C@]3(C=C[C@@H](O)[C@]4(CC[C@@](C)([C@H]5CC[C@](O)(CC)[C@H](C)O5)O4)O3)[C@H](C)C[C@@H]2C)O1` (some centres undefined), the GI50 [1] is reported as 2.19 µM, the TGI [1] is reported as 5.48 µM and the GI50 [2] is reported as 2.07 µM. For the same molecule, the TGI [2] was 5.32 µM, the GI50 [3] was 3.37 µM and the TGI [3] was greater than 100 µM. For the same molecule, the GI50 [4] was 2.9 µM, the TGI [4] was 11 µM and the GI50 [5] was 3.03 µM. For the same molecule, the TGI [5] was 12.3 µM, the GI50 [6] was 1.75 µM and the TGI [6] was 7.63 µM. The GI50 [7] was 3.19 µM, the TGI [7] was 11.5 µM and the GI50 [8] was 2.56 µM. For the same molecule, the TGI [8] was 6.23 µM, the GI50 [9] was 2.46 µM and the TGI [9] was 5.61 µM. For the same molecule, the GI50 [10] was 2.33 µM, the TGI [10] was 9.07 µM and the GI50 [11] was 2.41 µM. It also gave a TGI [11] of 7.26 µM, a GI50 [12] of 2.81 µM and a TGI [12] of 10.1 µM. The GI50 [13] was 2.05 µM, the TGI [13] was 4.81 µM and the GI50 [14] was 2.09 µM. The TGI [14] was 4.76 µM, the GI50 [15] was 3.22 µM and the TGI [15] was 12.2 µM. The GI50 [16] was 1.39 µM, the TGI [16] was 4.31 µM and the GI50 [17] was 2.22 µM. The TGI [17] was 6.27 µM, the GI50 [18] was 3.12 µM and the TGI [18] was 16.1 µM. The GI50 [19] was 2.41 µM, the TGI [19] was 8.53 µM and the GI50 [20] was 2.64 µM. It also gave a TGI [20] of 11 µM, a GI50 [21] of 1.87 µM and a TGI [21] of 3.65 µM. For the same molecule, the GI50 [22] was 1.52 µM, the TGI [22] was 3.22 µM and the GI50 [56] was 1.76 µM. It also gave a TGI [56] of 3.6 µM, a GI50 [24] of 1.95 µM and a TGI [24] of 5.14 µM. For the same molecule, the GI50 [25] was 1.77 µM, the TGI [25] was 3.84 µM and the GI50 [26] was 2.71 µM. It also gave a TGI [26] of 8.5 µM, a GI50 [27] of 2.33 µM and a TGI [27] of 6.01 µM. The GI50 [28] was 1.86 µM, the TGI [28] was 4.92 µM and the GI50 [29] was 2.48 µM. The TGI [29] was 6.93 µM, the GI50 [30] was 1.97 µM and the TGI [30] was 4.35 µM. For the same molecule, the GI50 [31] was 2.08 µM, the TGI [31] was 5.68 µM and the GI50 [32] was 2.7 µM. The TGI [32] was 9.82 µM, the GI50 [33] was 1.92 µM and the TGI [33] was 4.57 µM. It also gave a GI50 [34] of 2.63 µM, a TGI [34] of 10.1 µM and a GI50 [35] of 2.25 µM. It also gave a TGI [35] of 7.26 µM, a GI50 [36] of 3.48 µM and a TGI [36] of 76.4 µM. The GI50 [37] was 2.31 µM, the TGI [37] was 12.4 µM and the GI50 [57] was 1.62 µM. The TGI [57] was 5.43 µM, the GI50 [38] was 1.57 µM and the TGI [38] was 3.47 µM. The GI50 [39] was 3.27 µM, the TGI [39] was 34.8 µM and the GI50 [40] was 1.87 µM. It also gave a TGI [40] of 5.23 µM, a GI50 [41] of 1.97 µM and a TGI [41] of 3.91 µM. It also gave a GI50 [42] of 2.62 µM, a TGI [42] of 7.47 µM and a GI50 [43] of 4.45 µM. It also gave a TGI [43] of 21.6 µM, a GI50 [44] of 1.72 µM and a TGI [44] of 3.15 µM. It also gave a GI50 [45] of 3.51 µM, a TGI [45] greater than 100 µM and a GI50 [46] of 2.2 µM. For the same molecule, the TGI [46] was 6.42 µM, the GI50 [47] was 3.08 µM and the TGI [47] was greater than 100 µM. The GI50 [58] was 1.84 µM, the TGI [58] was 10.5 µM and the GI50 [48] was 2.41 µM. It also gave a TGI [48] of 7.1 µM, a GI50 [49] of 2.97 µM and a TGI [49] of 10.6 µM. It also gave a GI50 [50] of 2.37 µM, a TGI [50] of 13.5 µM and a GI50 [51] of 3.65 µM. For the same molecule, the TGI [51] was greater than 100 µM, the GI50 [52] was 2.78 µM and the TGI [52] was 10.1 µM. The GI50 [53] was 2.35 µM, the TGI [53] was 8.25 µM and the GI50 [54] was 1.66 µM. For the same molecule, the TGI [54] was 4.09 µM, the GI50 [55] was 2.16 µM and the TGI [55] was 7.46 µM.
